Where “and” joins values, the source holds several entries; their conditions need not be identical. Equal entries are not always repeated.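 These data come from cells grown in 96-well plates and exposed to compound for 48 hours at five concentrations. GI50 marks 50% less growth. The concentration for full growth arrest is given as TGI.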
Assays:
Assay in all cases: inhibition of tumour cell growth, NCI panel, 48 h
DMS 114 small cell lung = system: DMS 114 small cell lung
DLD-1 colon = system: DLD-1 colon
LXFL 529 NSCLC = system: LXFL 529 NSCLC
MDA-N = system: MDA-N
SNB-78 CNS = system: SNB-78 CNS
XF 498 CNS = system: XF 498 CNS
M19-MEL melanoma = system: M19-MEL melanoma
HS 578T breast = system: HS 578T breast
RXF-631 renal = system: RXF-631 renal

Row | Structure (SMILES) | TGI (DMS 114 small cell lung) [µM] | TGI (DLD-1 colon) [µM] | TGI (LXFL 529 NSCLC) [µM] | GI50 (MDA-N) [µM] | TGI (MDA-N) | TGI (SNB-78 CNS) [µM] | TGI (XF 498 CNS) [µM] | TGI (M19-MEL melanoma) [µM] | GI50 (HS 578T breast) [µM] | TGI (HS 578T breast) | TGI (RXF-631 renal) [µM] | GI50 (DMS 114 small cell lung) [µM] | GI50 (DLD-1 colon) [µM] | GI50 (LXFL 529 NSCLC) [µM] | GI50 (SNB-78 CNS) [µM] | GI50 (XF 498 CNS) [µM] | GI50 (M19-MEL melanoma) [µM] | GI50 (RXF-631 renal) [µM]
1 | CCC1(O)C(=O)OCc2c1cc1n(c2=O)Cc2cc3ccc(C=O)cc3nc2-1 (stereo not drawn) | 20.5 | > 100 | > 100 | 3.9 | 23.7 µM and 36.4 µM | 98.2 | 19.2 | 19.8 | 27 | 50 µM and > 100 µM | 31.7 | – | – | – | – | – | – | –
2 | Cc1ccc(N(C(=O)CC(=O)NN)C(=O)c2ccccc2Cl)cc1 | > 100 | > 100 | > 100 | – | – | > 100 | > 100 | > 100 | – | – | > 100 | – | – | – | – | – | – | –
3 | CCC[CH2][Sn]1([CH2]CCC)[O]C(=O)C(C(C)C)N=Cc2ccccc2[O]1 (stereo not drawn) | 0.229 | > 100 | 0.2 | – | – | 1.23 | > 100 | 1.08 | – | – | 0.308 | 0.0918 | 0.499 | 0.0617 | 0.227 | > 100 | 0.232 | 0.166
4 | COC(=O)c1cc(Br)c(Br)n1C | > 100 | > 100 | > 100 | – | – | > 100 | > 100 | > 100 | – | – | > 100 | – | – | – | – | – | – | –
5 | CN/N=C(/CCN1CCCC1)CC(c1ccccc1)c1c(O)c2ccccc2oc1=O (stereo not drawn) | > 100 | > 100 | > 100 | – | > 100 µM | > 100 | > 100 | > 100 | – | > 100 µM | > 100 | – | – | – | – | – | – | –

Reference: PubChem BioAssay (NCI)
